The source of these data is ChEMBL document CHEMBL4483862, “Open-source discovery of chemical leads for next-generation chemoprotective antimalarials” (2018).

This assay concerns Plasmodium berghei. Description: Luciferase/luciferin-expressing antifolate-resistant parasites were used to infect a culture of HepG2 cells that were pre-incubated with compounds. Infected hepatocytes emit light due to the luciferase reaction. Assay results are presented as the percent inhibition of light emission compared to control. […]. Type of assay: functional. Conditions: sporozoite; for IC90: read-out: LUCIFERASE INFECTION ASSAY - IC90.

Where [1] appears, read: read-out: LUCIFERASE INFECTION ASSAY - IC50.

The term IC50 denotes the concentration that inhibits the measured activity by half. The IC90 is the point of the concentration-response curve where the effect stands at 90%. `O=C1C=C(c2ccccc2)C(=O)N1c1cccc(Cl)c1`: the IC90 is over 11.6 µM. Besides, the IC50 (FFLUC_HILL_SLOPE 29.2, FFLUC_R_SQUARED 0.289, PBLUC_HILL_SLOPE 11, PBLUC_R_SQUARED 0.329, read-out: LUCIFERASE INFECTION ASSAY - IC50) was 11.3 µM.

Take `Cc1nn(-c2ccccc2)c2nc(Cl)c(C3Nc4ccccc4-c4nc5ccccc5n43)cc12` (centres undefined): the IC90 is over 10 µM. In addition, the 50% inhibitory concentration (IC50) (FFLUC_HILL_SLOPE 11.9, FFLUC_R_SQUARED 0.792, read-out: LUCIFERASE INFECTION ASSAY - IC50) is over 10 µM.

As to `Cn1c(-c2ccc(Cl)cc2)csc1=Nc1ccc(Cl)c(Cl)c1`, the IC90 was found to be 3.46 µM. Further, where the note is “FFLUC_HILL_SLOPE 8.54, FFLUC_R_SQUARED 0.841, PBLUC_HILL_SLOPE 1.64, PBLUC_R_SQUARED 0.468, read-out: LUCIFERASE INFECTION ASSAY - IC50”, the IC50 is 0.91 µM.

`COc1ccc(-n2nc(C)c3c2NC(=O)CC3c2ccc3c(c2)OCO3)cc1` (centres undefined): the IC90 is over 8.74 µM. Also, the IC50 (HEPG2TOX_HILL_SLOPE 1.66, HEPG2TOX_R_SQUARED 0.931, PBLUC_HILL_SLOPE 1.06, PBLUC_R_SQUARED 0.555, read-out: LUCIFERASE INFECTION ASSAY - IC50) came out at 1.33 µM.

With `CN(C)c1ccc(C(c2ccc(OC(F)(F)F)cc2)c2ccc(N(C)C)cc2)cc1`, the IC90 was 3.56 µM. The half-maximal inhibitory concentration (IC50) (FFLUC_HILL_SLOPE 27.2, FFLUC_R_SQUARED 0.132, HEPG2TOX_HILL_SLOPE 6.02, HEPG2TOX_R_SQUARED 0.417, PBLUC_HILL_SLOPE 10.6, PBLUC_R_SQUARED 0.521, read-out: LUCIFERASE INFECTION ASSAY - IC50) was found to be 2.89 µM.

Turning to `CN1N=C2c3ccccc3CCC2C1c1ccc(C(F)(F)F)cc1` (centres undefined), the concentration for an effect of 90% (IC90) came to 1.66 µM. Moreover, under “PBLUC_HILL_SLOPE 1.95, PBLUC_R_SQUARED 0.843, read-out: LUCIFERASE INFECTION ASSAY - IC50”, the IC50 stood at 0.537 µM.

As for `Cc1cc(C)n(CCC(=O)N2CCN(C(c3ccc(F)cc3)c3ccc(F)cc3)CC2)n1`, the IC90 was over 10 µM. The half-maximal inhibitory concentration (IC50) (HEPG2TOX_HILL_SLOPE 1.37, HEPG2TOX_R_SQUARED 0.338, PBLUC_HILL_SLOPE 18.9, PBLUC_R_SQUARED 0.322, read-out: LUCIFERASE INFECTION ASSAY - IC50) stood at 9.4 µM.

On to `Cc1csc(NC(=O)Nc2cc(C(F)(F)F)cc(C(F)(F)F)c2)c1`, for which the concentration for an effect of 90% (IC90) came out at 3.4 µM. The IC50 (HEPG2TOX_HILL_SLOPE 15.4, HEPG2TOX_R_SQUARED 0.694, PBLUC_HILL_SLOPE 2.82, PBLUC_R_SQUARED 0.474, read-out: LUCIFERASE INFECTION ASSAY - IC50) turned out to be 1.56 µM.

For the compound `CC(OC(=O)c1cc2c(s1)-c1ccccc1OC2)C(=O)N1CCNC1=O` (centres undefined), the IC90 was over 10 µM. The concentration for half-maximal inhibition (IC50) (PBLUC_HILL_SLOPE 18.2, PBLUC_R_SQUARED 0.638, read-out: LUCIFERASE INFECTION ASSAY - IC50) amounted to 9.62 µM.

On to `Cc1c(-c2cccc(Cl)c2)nc2ccccc2c1C(=O)OCC(=O)C(C#N)=C1Nc2ccccc2N1`, for which the IC90 is over 10 µM. For the same compound, the IC50 under setting [1] was over 10 µM.

Consider `CCc1cccc2c(C3=CCN(c4ncnc5c4cnn5C)CC3)c[nH]c12`, for which the IC90 is over 10 µM. Besides, the IC50 under setting [1] was over 10 µM.

For `c1ccc(-c2cc3c(NCc4ccccc4CN4CCOCC4)ncnc3s2)cc1`, the IC90 was over 10 µM. Moreover, under setting [1], the 50% inhibitory concentration (IC50) was over 10 µM.

As for `COc1ccc(Cc2nnc(S)n2NC(=O)Nc2ccc(Cl)c(Cl)c2)cc1`, the 90% effect concentration (IC90) is over 10 µM. Further, under setting [1], the IC50 is over 10 µM.

For `COc1cc2nc(SCc3c(C)noc3C)n(CCC3=CCCCC3)c(=O)c2cc1OC`, the 90% effect concentration (IC90) is over 10 µM. Under setting [1], the half-inhibitory concentration (IC50) was over 10 µM.

Consider `C/C(=N\NC(=S)NC(C)(C)C)c1cc(F)cc(F)c1O`, for which the concentration for an effect of 90% (IC90) stood at 10.5 µM. Where the note is “HEPG2TOX_HILL_SLOPE 8.26, HEPG2TOX_R_SQUARED 0.458, PBLUC_HILL_SLOPE 21.3, PBLUC_R_SQUARED 0.177, read-out: LUCIFERASE INFECTION ASSAY - IC50”, the IC50 came to 9.5 µM.

With `c1coc(-c2c3c(nc4c2oc2ccccc24)CCCCCCCCCC3)c1`, the 90% effect concentration (IC90) was over 10 µM. For the same compound, the half-maximal inhibitory concentration (IC50) (FFLUC_HILL_SLOPE 1.77, FFLUC_R_SQUARED 0.636, read-out: LUCIFERASE INFECTION ASSAY - IC50) is over 10 µM.

As to `O=C(CN1CCN(C(=O)c2ccccc2COc2ccccc2)CC1)Nc1ccccc1Cl`, the IC90 was over 10 µM. For the same compound, the IC50 under setting [1] is over 10 µM.

With `OC(c1ccccc1)c1cccs1` (centres undefined), the IC90 is over 17.3 µM. Moreover, under setting [1], the 50% inhibitory concentration (IC50) is over 17.3 µM.

`NC(Cc1ccc(F)cc1)c1csc(Nc2cc(NCc3ccco3)ncn2)n1` (centres undefined): the IC90 is over 8.04 µM. Also, the IC50 under setting [1] is over 8.04 µM.

For the compound `FC(F)(F)c1ccc(/C=N/Nc2ccc(C(F)(F)F)cc2)cc1`, the concentration for an effect of 90% (IC90) is over 9.93 µM. Moreover, the half-maximal inhibitory concentration (IC50) (PBLUC_HILL_SLOPE 3.36, PBLUC_R_SQUARED 0.386, read-out: LUCIFERASE INFECTION ASSAY - IC50) is 5.72 µM.

For `CN(C)Cc1nc(O)c2c(n1)-c1ccccc1CC2(C)C`, the IC90 was 4.32 µM. Under “PBLUC_HILL_SLOPE 13.2, PBLUC_R_SQUARED 0.272, read-out: LUCIFERASE INFECTION ASSAY - IC50”, the half-inhibitory concentration (IC50) came out at 3.66 µM.

Take `FC(F)(F)Oc1cccc(-c2nc3ccnc(NCCc4ccncc4)c3[nH]2)c1`: the IC90 is over 10 µM. Further, the IC50 under setting [1] worked out at 3.37 µM.

Take `COc1ccc(-c2cnc(N)c(-c3ccc(O)c(OC)c3)c2)cn1`: the IC90 was 3.7 µM. Under “FFLUC_HILL_SLOPE 1.75, FFLUC_R_SQUARED 0.121, PBLUC_HILL_SLOPE 11, PBLUC_R_SQUARED 0.572, read-out: LUCIFERASE INFECTION ASSAY - IC50”, the concentration for half-maximal inhibition (IC50) is 3.03 µM.

In the case of `CC(=O)NCCc1ccc(C(=O)COC(=O)c2cc(C(C)C)cc(C(C)C)c2O)s1`, the concentration for an effect of 90% (IC90) was over 10 µM. For the same compound, the concentration for half-maximal inhibition (IC50) under setting [1] is over 10 µM.

For the compound `CCOc1ccc(N2CC(C(=O)N3CCCC(c4nc(C)no4)C3)CC2=O)cc1` (centres undefined), the IC90 was over 10 µM. In addition, the IC50 under setting [1] was over 10 µM.

Regarding `Cc1ccc(COC(=O)c2cccc3c(=O)c(C)c(-c4ccccc4)oc23)cc1`, the IC90 is over 10 µM. In addition, the 50% inhibitory concentration (IC50) under setting [1] is over 10 µM.

Consider `O=C(CN1CCCCC1)Nc1c(F)cccc1F`, for which the IC90 was over 13 µM. Also, the IC50 under setting [1] is over 13 µM.

Regarding `O=[N+]([O-])c1cnc(Sc2nnc(SCc3cccc(C(F)(F)F)c3)s2)s1`, the IC90 is over 7.56 µM. For the same compound, under “FFLUC_HILL_SLOPE 0.915, FFLUC_R_SQUARED 0.422, read-out: LUCIFERASE INFECTION ASSAY - IC50”, the IC50 is over 7.56 µM.

Regarding `Cc1nn(-c2ccc(Cl)cc2)c2sc(C(=O)NCC3(N(C)C)CCCCC3)cc12`, the IC90 is 5.31 µM. Where the note is “HEPG2TOX_HILL_SLOPE 22.9, HEPG2TOX_R_SQUARED 0.594, PBLUC_HILL_SLOPE 11.3, PBLUC_R_SQUARED 0.837, read-out: LUCIFERASE INFECTION ASSAY - IC50”, the concentration for half-maximal inhibition (IC50) is 4.37 µM.

Turning to `COc1ccc(-c2cc(NC=O)c3ncc(-c4cc(OC)c(OC)c(OC)c4)n3c2)c(OC)c1`, the IC90 is 5.96 µM. For the same compound, under “FFLUC_HILL_SLOPE 13.2, FFLUC_R_SQUARED 0.535, HEPG2TOX_HILL_SLOPE 2.06, HEPG2TOX_R_SQUARED 0.871, PBLUC_HILL_SLOPE 2.04, PBLUC_R_SQUARED 0.466, read-out: LUCIFERASE INFECTION ASSAY - IC50”, the IC50 is 2.03 µM.

Turning to `CN(C)c1ccccc1-c1cnc2sc(NCCc3ccncc3)nn12`, the IC90 is over 9.05 µM. In addition, the IC50 (HEPG2TOX_HILL_SLOPE 0.921, HEPG2TOX_R_SQUARED 0.497, read-out: LUCIFERASE INFECTION ASSAY - IC50) is over 9.05 µM.

Regarding `CCOc1ccc2nc(SCC(=O)N3Cc4ccccc4CC3C(=O)O)sc2c1` (centres undefined), the IC90 is over 10 µM. The IC50 under setting [1] is over 10 µM.

With `Cc1nn(-c2ccccc2)nc1C(=O)NNC(=S)Nc1ccc(Cl)cc1`, the IC90 was over 8.53 µM. In addition, under setting [1], the IC50 was over 8.53 µM.

As for `O=C(Cc1nc(=O)c2c3c(sc2[nH]1)CCCC3)c1c[nH]c2ccccc12`, the IC90 was over 10 µM. Further, the 50% inhibitory concentration (IC50) under setting [1] was over 10 µM.

With `CCc1ccccc1NC(=O)C(C)SCc1ccccc1` (centres undefined), the IC90 is over 11 µM. Besides, the half-maximal inhibitory concentration (IC50) (PBLUC_HILL_SLOPE 11.9, PBLUC_R_SQUARED 0.654, read-out: LUCIFERASE INFECTION ASSAY - IC50) stood at 9.84 µM.

With `COc1ccc(Nc2nccc3[nH]c(-c4cccc(F)c4)cc23)cc1`, the concentration for an effect of 90% (IC90) worked out at 3.55 µM. Also, where the note is “HEPG2TOX_HILL_SLOPE 10.4, HEPG2TOX_R_SQUARED 0.0549, PBLUC_HILL_SLOPE 2.88, PBLUC_R_SQUARED 0.623, read-out: LUCIFERASE INFECTION ASSAY - IC50”, the 50% inhibitory concentration (IC50) was determined as 1.66 µM.

Turning to `O=C(CSc1nnnn1CC1CCCO1)NCc1ccc2c(c1)OCO2` (centres undefined), the IC90 is over 10 µM. Moreover, the half-inhibitory concentration (IC50) under setting [1] is over 10 µM.

With `O=C(Nc1ccccc1C(=O)OCN1C(=O)c2ccccc2C1=O)c1ccc([N+](=O)[O-])cc1Cl`, the concentration for an effect of 90% (IC90) was over 10 µM. Also, the IC50 under setting [1] is over 10 µM.

In the case of `Cc1ccc(CC2CC(=O)N(C3CCCCC3)C2=O)cc1` (centres undefined), the 90% effect concentration (IC90) was over 11.6 µM. Besides, the IC50 under setting [1] is over 11.6 µM.

Take `COc1ccccc1-c1nc(CCl)cs1`: the IC90 was over 10 µM. The IC50 under setting [1] was over 10 µM.

As for `O=C(O)c1c(CN2CCN(c3ccccc3)CC2)c(O)c2ccccc2c1O`, the IC90 was determined as 8.28 µM. Besides, the IC50 (HEPG2TOX_HILL_SLOPE 4.36, HEPG2TOX_R_SQUARED 0.83, PBLUC_HILL_SLOPE 4.96, PBLUC_R_SQUARED 0.0239, read-out: LUCIFERASE INFECTION ASSAY - IC50) amounted to 5.31 µM.

On to `Cc1cc(C(=O)CN2C(=O)NC(C)(C3CC3)C2=O)c(C)n1C(c1ccccc1)c1ccccc1` (centres undefined), for which the IC90 stood at 6.7 µM. The IC50 (FFLUC_HILL_SLOPE 14.7, FFLUC_R_SQUARED 0.253, PBLUC_HILL_SLOPE 1.67, PBLUC_R_SQUARED 0.756, read-out: LUCIFERASE INFECTION ASSAY - IC50) was found to be 1.8 µM.
